Data as given in patent publication US12577245B2, “Sulfonyl benzamide derivatives as Bcl-2 inhibitors” (ASCENTAGE PHARMA (SUZHOU) CO., LTD., priority 2021, dated 2026).

These compounds were tested against Bcl-2 G101V (Homo sapiens, UniProt P10415, G101V) (assay: Bcl-2 G101V inhibition, fluorescence polarization (Flu-BIM tracer) binding assay). Settings: FP; 20 nM Bcl2, 5 nM Flu-BIM, 1 h incubation; read-out: Bcl-2 G101V (FP).
CC1(C)CCC(CN2CCN(c3ccc(C(=O)NS(=O)(=O)c4ccc(NC[C@H]5CC[C@](C)(O)CC5)c([N+](=O)[O-])c4)c(Oc4cnc5[nH]ccc5c4)c3)CC2)=C(c2cc(-c3cc(F)c(F)c(F)c3)cs2)C1 [Example 45, 2-((1H-pyrrolo[2,3-b]pyridin-5-yl)oxy)-4-(4-((4,4-dimethyl-2-(4-(3,4,5-trifluorophenyl)thiophen-2-yl)cyclohex-1-en-1-yl)methyl)piperazin-1-yl)-N-((4-((((1r,4r)-4-hydroxy-4-methylcyclohexyl)methyl)amino)-3-nitrophenyl)sulfonyl)benzamide] was tested, and the IC50 was 49 nM.
Work on CC1(C)CCC(CN2CCN(c3ccc(C(=O)NS(=O)(=O)c4ccc(NC[C@H]5COCCO5)c([N+](=O)[O-])c4)c(Oc4cnc5[nH]ccc5c4)c3)CC2)=C(c2cc(CN3CCC(N4CCOCC4)CC3)cs2)C1 [Example 28, (S)—N-((4-(((1,4-dioxan-2-yl)methyl)amino)-3-nitrophenyl)sulfonyl)-2-((1H-pyrrolo[2,3-b]pyridin-5-yl)oxy)-4-(4-((4,4-dimethyl-2-(4-((4-morpholinopiperidin-1-yl)methyl)thiophen-2-yl)cyclohex-1-en-1-yl)methyl)piperazin-1-yl)benzamide] yielded an IC50 of 47 nM.
CC1(C)CCC(CN2CCN(c3ccc(C(=O)NS(=O)(=O)c4ccc(NC[C@H]5CC[C@](C)(O)CC5)c([N+](=O)[O-])c4)c(Oc4cnc5[nH]ccc5c4)c3)CC2)=C(c2cc(-c3c(F)ccc(F)c3F)cs2)C1 [Example 54, 2-((1H-pyrrolo[2,3-b]pyridin-5-yl)oxy)-4-(4-((4,4-dimethyl-2-(4-(2,3,6-trifluorophenyl)thiophen-2-yl)cyclohex-1-en-1-yl)methyl)piperazin-1-yl)-N-((4-((((1r,4r)-4-hydroxy-4-methylcyclohexyl)methyl)amino)-3-nitrophenyl)sulfonyl)benzamide] showed an IC50 of 33.2 nM.
CC1(C)CCC(CN2CCN(c3ccc(C(=O)NS(=O)(=O)c4ccc(NC[C@H]5COCCO5)c([N+](=O)[O-])c4)c(Oc4cnc5[nH]ccc5c4)c3)CC2)=C(c2cc(-c3ccc(C(F)F)cc3)cs2)C1 [Example 48, (S)—N-((4-(((1,4-dioxan-2-yl)methyl)amino)-3-nitrophenyl)sulfonyl)-2-((1H-pyrrolo[2,3-b]pyridin-5-yl)oxy)-4-(4-((2-(4-(4-(difluoromethyl)phenyl)thiophen-2-yl)-4,4-dimethylcyclohex-1-en-1-yl)methyl)piperazin-1-yl)benzamide] showed an IC50 of 36.7 nM.
Work on CC1(C)CCC(CN2CCN(c3ccc(C(=O)NS(=O)(=O)c4ccc(NC[C@H]5CC[C@](C)(O)CC5)c([N+](=O)[O-])c4)c(Oc4cnc5[nH]ccc5c4)c3)CC2)=C(c2cc(-c3cc(F)cc(C#N)c3)cs2)C1 [Example 55, 2-((1H-pyrrolo[2,3-b]pyridin-5-yl)oxy)-4-(4-((2-(4-(3-cyano-5-fluorophenyl)thiophen-2-yl)-4,4-dimethylcyclohex-1-en-1-yl)methyl)piperazin-1-yl)-N-((4-((((1r,4r)-4-hydroxy-4-methylcyclohexyl)methyl)amino)-3-nitrophenyl)sulfonyl)benzamide] yielded an IC50 of 47.5 nM.
In the case of CC1(C)CCC(CN2CCN(c3ccc(C(=O)NS(=O)(=O)c4ccc(NCC5CCOCC5)c([N+](=O)[O-])c4)c(Oc4cnc5[nH]ccc5c4)c3)CC2)=C(c2csc(C(F)(F)F)c2)C1 [Example 3, 2-((1H-pyrrolo[2,3-b]pyridin-5-yl)oxy)-4-(4-((4,4-dimethyl-2-(5-(trifluoromethyl)thiophen-3-yl)cyclohex-1-en-1-yl)methyl)piperazin-1-yl)-N-((3-nitro-4-(((tetrahydro-2H-pyran-4-yl)methyl)amino)phenyl)sulfonyl)benzamide], the IC50 is reported as 45.6 nM.
With CC1(C)CCC(CN2CCN(c3ccc(C(=O)NS(=O)(=O)c4ccc(NC[C@H]5CC[C@](C)(O)CC5)c([N+](=O)[O-])c4)c(Oc4cnc5[nH]ccc5c4)c3)CC2)=C(c2cc(-c3ccc(C(C)(C)O)cc3F)cs2)C1 [Example 62, 2-((1H-pyrrolo[2,3-b]pyridin-5-yl)oxy)-4-(4-((2-(4-(2-fluoro-4-(2-hydroxypropan-2-yl)phenyl)thiophen-2-yl)-4,4-dimethylcyclohex-1-en-1-yl)methyl)piperazin-1-yl)-N-((4-((((1r,4r)-4-hydroxy-4-methylcyclohexyl)methyl)amino)-3-nitrophenyl)sulfonyl)benzamide] the IC50 was 23.7 nM.
With CC1(C)CCC(CN2CCN(c3ccc(C(=O)NS(=O)(=O)c4ccc(NCC5CCOCC5)c([N+](=O)[O-])c4)c(Oc4cnc5[nH]ccc5c4)c3)CC2)=C(c2ccsc2-c2ccccc2)C1 [Example 35, 2-((1H-pyrrolo[2,3-b]pyridin-5-yl)oxy)-4-(4-((4,4-dimethyl-2-(2-phenylthiophen-3-yl)cyclohex-1-en-1-yl)methyl)piperazin-1-yl)-N-((3-nitro-4-(((tetrahydro-2H-pyran-4-yl)methyl)amino)phenyl)sulfonyl)benzamide] the IC50 was 47.6 nM.
With CC1(C)CCC(CN2CCN(c3ccc(C(=O)NS(=O)(=O)c4ccc(NC[C@H]5CC[C@](C)(O)CC5)c([N+](=O)[O-])c4)c(Oc4cnc5[nH]ccc5c4)c3)CC2)=C(c2cc(-c3ccc(C(C)(O)C(F)(F)F)cc3F)cs2)C1 (stereo partly shown) [Example 78, 2-((1H-pyrrolo[2,3-b]pyridin-5-yl)oxy)-4-(4-((2-(4-(2-fluoro-4-(1,1,1-trifluoro-2-hydroxypropan-2-yl)phenyl)thiophen-2-yl)-4,4-dimethylcyclohex-1-en-1-yl)methyl)piperazin-1-yl)-N-((4-((((1r,4r)-4-hydroxy-4-methylcyclohexyl)methyl)amino)-3-nitrophenyl)sulfonyl)benzamide] the IC50 was 33.2 nM.
In the case of CC1(C)CCC(CN2CCN(c3ccc(C(=O)NS(=O)(=O)c4ccc(NC[C@H]5COCCO5)c([N+](=O)[O-])c4)c(Oc4cnc5[nH]ccc5c4)c3)CC2)=C(c2cc(-c3ccc(Cl)cc3)cs2)C1 [Example 38, (S)—N-((4-(((1,4-dioxan-2-yl)methyl)amino)-3-nitrophenyl)sulfonyl)-2-((1H-pyrrolo[2,3-b]pyridin-5-yl)oxy)-4-(4-((2-(4-(4-chlorophenyl)thiophen-2-yl)-4,4-dimethylcyclohex-1-en-1-yl)methyl)piperazin-1-yl)benzamide], the IC50 is reported as 35.4 nM.
In the case of CC1(C)CCC(CN2CCN(c3ccc(C(=O)NS(=O)(=O)c4ccc(NC[C@H]5CC[C@](C)(O)CC5)c([N+](=O)[O-])c4)c(Oc4cnc5[nH]ccc5c4)c3)CC2)=C(c2cc3c(s2)CCN(c2ccc(F)cc2)C3)C1 [Example 16, 2-((1H-pyrrolo[2,3-b]pyridin-5-yl)oxy)-4-(4-((2-(5-(4-fluorophenyl)-4,5,6,7-tetrahydrothieno[3,2-c]pyridin-2-yl)-4,4-dimethylcyclohex-1-en-1-yl)methyl)piperazin-1-yl)-N-((4-((((1r,4r)-4-hydroxy-4-methylcyclohexyl)methyl)amino)-3-nitrophenyl)sulfonyl)benzamide], the IC50 is reported as 94.7 nM.
In the case of CCC(O)(CC)c1cc(F)c(-c2csc(C3=C(CN4CCN(c5ccc(C(=O)NS(=O)(=O)c6ccc(NC[C@H]7CC[C@](C)(O)CC7)c([N+](=O)[O-])c6)c(Oc6cnc7[nH]ccc7c6)c5)CC4)CCC(C)(C)C3)c2)c(F)c1 [Example 67, 2-((1H-pyrrolo[2,3-b]pyridin-5-yl)oxy)-4-(4-((2-(4-(2,6-difluoro-4-(3-hydroxypentan-3-yl)phenyl)thiophen-2-yl)-4,4-dimethylcyclohex-1-en-1-yl)methyl)piperazin-1-yl)-N-((4-((((1r,4r)-4-hydroxy-4-methylcyclohexyl)methyl)amino)-3-nitrophenyl)sulfonyl)benzamide], the IC50 is reported as 33.7 nM.
CC(CO)c1ccc(-c2csc(C3=C(CN4CCN(c5ccc(C(=O)NS(=O)(=O)c6ccc(NC[C@H]7CC[C@](C)(O)CC7)c([N+](=O)[O-])c6)c(Oc6cnc7[nH]ccc7c6)c5)CC4)CCC(C)(C)C3)c2)c(F)c1 (stereo partly shown) [Example 72, 2-((1H-pyrrolo[2,3-b]pyridin-5-yl)oxy)-4-(4-((2-(4-(2-fluoro-4-(1-hydroxypropan-2-yl)phenyl)thiophen-2-yl)-4,4-dimethylcyclohex-1-en-1-yl)methyl)piperazin-1-yl)-N-((4-((((1r,4r)-4-hydroxy-4-methylcyclohexyl)methyl)amino)-3-nitrophenyl)sulfonyl)benzamide] was tested, and the IC50 was 27 nM.
For CC(=O)NC(C)(C)c1cc(F)c(-c2csc(C3=C(CN4CCN(c5ccc(C(=O)NS(=O)(=O)c6ccc(NC[C@H]7CC[C@](C)(O)CC7)c([N+](=O)[O-])c6)c(Oc6cnc7[nH]ccc7c6)c5)CC4)CCC(C)(C)C3)c2)c(F)c1 [Example 80, 2-((1H-pyrrolo[2,3-b]pyridin-5-yl)oxy)-4-(4-((2-(4-(4-(2-acetamidopropan-2-yl)-2,6-difluorophenyl)thiophen-2-yl)-4,4-dimethylcyclohex-1-en-1-yl)methyl)piperazin-1-yl)-N-((4-((((1r,4r)-4-hydroxy-4-methylcyclohexyl)methyl)amino)-3-nitrophenyl)sulfonyl)benzamide], the IC50 was 23.4 nM.
For Cc1sc(C2=C(CN3CCN(c4ccc(C(=O)NS(=O)(=O)c5ccc(NC[C@H]6CC[C@](C)(O)CC6)c([N+](=O)[O-])c5)c(Oc5cnc6[nH]ccc6c5)c4)CC3)CCC(C)(C)C2)cc1-c1c(F)cc(C(C)(C)O)cc1F [Example 81, 2-((1H-pyrrolo[2,3-b]pyridin-5-yl)oxy)-4-(4-((2-(4-(2,6-difluoro-4-(2-hydroxypropan-2-yl)phenyl)-5-methylthiophen-2-yl)-4,4-dimethylcyclohex-1-en-1-yl)methyl)piperazin-1-yl)-N-((4-((((1r,4r)-4-hydroxy-4-methylcyclohexyl)methyl)amino)-3-nitrophenyl)sulfonyl)benzamide], the IC50 was 103 nM.
CC(C)c1csc(C2=C(CN3CCN(c4ccc(C(=O)NS(=O)(=O)c5ccc(NCC6CCOCC6)c([N+](=O)[O-])c5)c(Oc5cnc6[nH]ccc6c5)c4)CC3)CCC(C)(C)C2)c1 [Example 8, 2-((1H-pyrrolo[2,3-b]pyridin-5-yl)oxy)-4-(4-((2-(4-isopropylthiophen-2-yl)-4,4-dimethylcyclohex-1-en-1-yl)methyl)piperazin-1-yl)-N-((3-nitro-4-(((tetrahydro-2H-pyran-4-yl)methyl)amino)phenyl)sulfonyl)benzamide] gave an IC50 of 30.9 nM.
